Assay results as given in patent US20070161547A1, “Modulation of survivin expression” (priority 2003, published 2007).
Read-outs that look alike come from different tables or passages of the source. Oligonucleotides are written 5' to 3', each unit as a sugar letter and its base; * is a phosphorothioate linkage, no mark a phosphodiester; rarer units and linkages stand in square brackets, end groups in braces. Plain capitals give the bases only. d = 2'-deoxy (DNA); r = 2'-OH (RNA)

Assays:
survivin protein = experiment: IC50 of dsRNA for survivin protein, quantitative Western blot ("W"); format: cell-based, human; details: for IC50: W (Western blot), HeLa cells
Procedure: Western blot analysis (immunoblot analysis) is carried out using standard methods. Cells are harvested 16-20 hours after oligonucleotide treatment, washed once with PBS, suspended in Laemmli buffer (100 μl/well), boiled for 5 minutes and loaded on a 16% SDS-PAGE gel. Gels are run for 1.5 hours at 150 V, and transferred to membrane for western blotting. Appropriate primary antibody directed to survivin is used, with a radiolabelled or fluorescently labeled secondary antibody directed against the primary antibody species. Bands are visualized using a PHOSPHORIMAGER™ (Molecular Dynamics, Sunnyvale, Calif.).
(§1) For western blot analysis, cells are plated in 10 cm tissue culture dishes (Falcon, #3003) at a density of 7.5×10^5 cells/dish. For RT-PCR analysis, 96-well plates (Corning Incorporated, #3596) are plated with 1×10^4 cells/well. Lipofectin (GIBCO/Invitrogen) transfection reagent is used at a concentration of 3 ul/ml OPTIMEM reduced serum medium (Gibco/Invitrogen)/100 nM siRNA duplex. Lipofectin reagent is incubated with OPTIMEM medium for 30 minutes prior to the addition of siRNA. The desired amount of siRNA is added and mixed. Further 1:1 dilutions are performed in OPTIMEM. Cells are washed twice with 1× phosphate buffered saline and then treated with the siRNA/Lipofectin mixture in OPTIMEM. After a 4 hr incubation period, OPTIMEM medium is replaced with complete growth medium. Cells are harvested after additional 16-20 hrs for Western blot or RT-PCR analysis.
At the end of the incubation period culture medium is removed and cells are washed twice with PBS. Cells are lysed in RIPA buffer (20 mM Tris-HCl, pH 7.4, 5 mM EDTA, 50 mM NaCl, 10 mM Sodium Pyrophosphate, 50 mM Sodium Fluoride, and 1% Nonidet P40) plus Complete™ Mini protease inhibitor tablets (Roche, #1836153) and 1 mM Sodium orthovanadate (Sigma) by directly adding buffer to the plate. Lysates are collected by scrapping, transferred to microfuge tubes and cleared from the cellular debris by centrifugation at 14,000 rpm for 30 minutes at 4° C. Protein concentrations are determined using BCA protein assay yeagents (Pierce). Total cellular protein is subjected to SDS-PAGE and transferred onto Immobilon-P membranes (Millipore, #IPVHO91). Membranes are probed with primary antibodies to survivin (R&D Systems, #AF886) and to β-Actin (Sigma, #A5441). Horseradish peroxidase linked Anti-rabbit Ig, and anti-mouse Ig, antibodies (Pharmacia) are used as secondary antibodies. Antigen-antibody complexes are visualized by incubation of membrane in SuperSigmal West Pico chemiluminescence reagents (Pierce) for 5 minutes followed by capturing of the chemiluminescence using Fluor-S imager (Biorad) equipped with the cool CCD camera. The protein bands of interest for each sample are quantified using Quantity One software (Biorad). The percentage inhibition for each samples are calculated by comparing the survivin/Actin protein ratio for the sample to survivin/Actin protein ratio for the untreated control. The IC50 is derived from the non-linear regression analysis of the percentage inhibition data using GraphPad Prism software (GraphPad Software).
The constructs tested comprise the antisense strand in the 5′-3′ orientation, and the sense strand in the 5′ to 3′ orientation, In Table 15, “D” is dose response (mRNA levels) and “W” is Western blot. All internucleoside linkages are phosphodiester unless otherwise noted by a lowercase “s” indicating a phosphorothioate linkage.

human survivin mRNA [1] = experiment: IC50 of dsRNA for survivin mRNA, dose response by quantitative RT-PCR ("D"); format: cell-based
Procedure: Representative parameters that can be studied include, for example, translation of survivin mRNAs or survivin protein synthesis; effect on surrogate markers; or any other parameter that is indicative of potential dsRNA therapeutic effectiveness that can be conveniently measured in vitro.
as §1
Total RNA is isolated using RNeasy® 96 kit according to recommended protocol (Qiagen). Briefly, cells are washed with 200 ul PBS after removal of growth medium. Following washing, 100 μl buffer RLT is added, plate is shaken vigorously for about 20 seconds. To each well 100 μl 70% ethanol are added and mixed by pipetting up and down three times. Samples are then applied into the wells of the RNeasy 96 plate placed in the QIAvac top base of the QIAvac 96 manifold, which is attached to a vacuum source. Vacuum is applied for 30 seconds or until transfer is complete. To each well 80 μl of DNase I incubation mix (20 mM Tris-HCl, pH 8.4, 2 mM MgCl2, 50 mM KCl and 225 Units/ml DNase I from Invitrogen) is added and incubated at room temperature for 30 minutes. Buffer RW1 (1 ml/well) is added and the vacuum is applied for 30 seconds. Buffer RPE (1 ml/well) is added to each well and vacuum is applied for 30 seconds. Washing steps with buffer RW1 and RPE1 are repeated once more. The plate is then removed from the manifold and blotted dry on paper towels. The plate is placed back in the QIAvac manifold and the vacuum is applied for 10 minutes. To elute RNA 30 μl of RNase-free water is added directly onto the membrane of each well, incubated for 1 minutes and vacuum is applied for 30 seconds. In order to maximize the recovery of total RNA the elution step is repeated with additional 30 μl/well RNase-free water.
Quantitation of survivin and GAPDH mRNA levels is determined by real-time quantitative RT-PCR using the ABI PRISM® 7900 Sequence Detection System (Applied Biosystems). RT-PCR reactions are carried out by adding 15 ul of TaqMan One Step PCR Master Mix (Applied Biosystems, #4309169) reagents (containing 100 nM each of forward primer and reverse primer, and 200 nM probe) to 96-well plates with 10 μl total RNA. For human survivin, the forward PCR primer is: 5′[…]3′ (SEQ ID NO: 186), and the reverse primer is: 5′[…]3′ (SEQ ID NO: 187). The survivin TaqMan® probe used is 5′(FAM)[…]3′ (SEQ ID NO: 188) (Biosearch Technologies, Inc.). This primer-probe set, designed to SEQ ID No 14 was used for all experiments in Examples 15 to the end. For human GAPDH, TaqMan GAPDH Control Reagent Kit is used (Applied Biosystems, #402869). The percentage inhibition for each samples are calculated by comparing the survivin/GAPDH mRNA ratio for the sample to survivin/GAPDH mRNA ratio for the untreated control. The IC50 is derived from the non-linear regression analysis of the percentage inhibition data using GraphPad Prism software (GraphPad Software).
The constructs tested comprise the antisense strand in the 5′-3′ orientation, and the sense strand in the 5′ to 3′ orientation, In Table 15, “D” is dose response (mRNA levels) and “W” is Western blot. […]

human survivin mRNA [2] = experiment: Inhibition of human survivin mRNA expression in HeLa cells, real-time quantitative PCR; format: cell-based; details: Table 11, 16 h, averages from two experiments
In short: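 Percent inhibition of survivin mRNA after antisense oligonucleotide treatment of HeLa cells, from a standard curve built on serially diluted untreated-control mRNA. Quantitation by TaqMan real-time RT-PCR with survivin-specific FAM/TAMRA probe and primers; GAPDH probed with JOE/TAMRA.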

[3] = Stability of siRNA constructs in mouse plasma, capillary gel electrophoresis; format: in vitro ADME; details: for Stability (t ½ in hours): Table 17, 25% mouse plasma, 37° C., pseudo first-order half-life of intact siRNA duplex
Procedure: Intact duplex RNA was analyzed from diluted mouse-plasma using an extraction and capillary electrophoresis method similar to those previously described (Leeds, J. M., et al., 1996, Anal. Biochem., 235, 36-43; Geary, R. S., et al., 1999, Anal. Biochem., 274, 241-248. Heparin-treated mouse plasma, from 3-6 month old female Balb/c mice (Charles River Labs) was thawed from −80° C. and diluted to 25% (v/v) with phosphate buffered saline (140 mM NaCl, 3 mM KCl, 2 mM potassium phosphate, 10 mM sodium phosphate). Approximately 10 nmol of pre-annealed siRNA, at a concentration of 100 μM, was added to the 25% plasma and incubated at 37° C. for 0, 15, 30, 45, 60, 120, 180, 240, 360, and 420 minutes. Aliquots were removed at the indicated time, treated with EDTA to a final concentration of 2 mM, and placed on ice at 0° C. until analyzed by capillary gel electrophoresis (Beckman P/ACE MDQ-UV with eCap DNA Capillary tube). The area of the siRNA duplex peak was measured and used to calculate the percent of intact siRNA remaining. Adenosine triphosphate (ATP) was added at a concentration of 2.5 mM to each injection as an internal calibration standard. A zero time point was taken by diluting siRNA in phosphate buffered saline followed by capillary electrophoresis. Percent intact siRNA was plotted against time, allowing the calculation of a pseudo first-order half-life.

[4] = D (dose response, mRNA levels), HeLa cells, read-out: IC50
[5] = Table 16, cell line not given, read-out: IC50 (nM) mRNA, dsRNA to human survivin

Q: For “339044_339074 (antisense AGGGCUGCCAGGCAGGGGGC; sense GCCCCUGCCUGGCAGCCCU; siRNA; listed as RNA, chemistry not fully specified)”, which IC50 (survivin protein) is on record?
A: 5.3 nM

Q: For “339046_339076 (antisense AACCCUGGAAGUGGUGCAGC; sense GCUGCACCACUUCCAGGGUU; siRNA; unmodified RNA)”, which IC50 (survivin protein) is on record?
A: 3.5 nM

Q: For “339048_346294 (antisense AUUUGAAAAUGUUGAUCUCC; sense rA*rGrG*rArG*rArU*rCrA*rArC*rArU*rUrU*rUrC*rArA*rA; siRNA; antisense: unmodified RNA)”, which IC50 (human survivin mRNA [1]; [4]) is on record?
A: 0.24 nM

Q: What about the “Percentage of Inhibition of survivin expression in HeLa cells” value (“Percentage of Inhibition … in HeLa cells” below) (human survivin mRNA [2]; 0.2 nM) of the same substance?
A: 39%

Q: And the “Percentage of Inhibition … in HeLa cells” value (human survivin mRNA [2]; 2.0 nM)?
A: 65%

Q: What about the “Percentage of Inhibition … in HeLa cells” value (human survivin mRNA [2]; 20.0 nM) of the same substance?
A: 85%

Q: Which IC50 (survivin protein) does the source give for “339049_339079 (antisense AGCACAGUUGAAACAUCUAA; sense UUAGAUGUUUCAACUGUGCU; siRNA; unmodified RNA)” here?
A: 6.12 nM

Q: For “339050_339080 (antisense AGAAGCACCUCUGGUGCCAC; sense GUGGCACCAGAGGUGCUUCU; siRNA; unmodified RNA)”, which IC50 (survivin protein) is on record?
A: ≥ 100 nM

Q: For “339051_339081 (antisense UCCCUCACUUCUCACCUGGU; sense ACCAGGUGAGAAGUGAGGGA; siRNA; unmodified RNA)”, which IC50 (survivin protein) is on record?
A: ≥ 100 nM

Q: With “339054_339084 (antisense CAACAUGAGGUCCAGACACA; sense UGUGUCUGGACCUCAUGUUG; siRNA; unmodified RNA)” as the substance, how does the IC50 (survivin protein) read?
A: ≥ 100 nM

Q: With “339055_339085 (antisense AGUCCACACUCAGGACUGUG; sense CACAGUCCUGAGUGUGGACU; siRNA; unmodified RNA)” as the substance, how does the IC50 (survivin protein) read?
A: ≥ 100 nM

Q: With “339057_339087 (antisense CAGGGACUCUGUCUCCAUUC; sense GAAUGGAGACAGAGUCCCUG; siRNA; unmodified RNA)” as the substance, how does the IC50 (survivin protein) read?
A: ≥ 100 nM

Q: For “339059_339089 (antisense GCUAUUCUGUGAAUUAACAA; sense UUGUUAAUUCACAGAAUAGC; siRNA; unmodified RNA)”, which IC50 (survivin protein) is on record?
A: 6.41 nM

Q: What does the source list for “339062_339092 (antisense UCCACCUGAAGUUCACCCCG; sense CGGGGUGAACUUCAGGUGGA; siRNA; unmodified RNA)”?
A: IC50 (human survivin mRNA [1]; [4]): 1.8 nM; IC50 (survivin protein): 65.2 nM

Q: With “339063_339093 (antisense AAGGAGUAUCUGCCAGACGC; sense GCGUCUGGCAGAUACUCCUU; siRNA; unmodified RNA)” as the substance, how does the IC50 (survivin protein) read?
A: 6.2 nM

Q: Which IC50 (survivin protein) does the source give for “339064_339094 (antisense UAAUCACACAGCAGUGGCAA; sense UUGCCACUGCUGUGUGAUUA; siRNA; unmodified RNA)” here?
A: 5.45 nM

Q: With “339066_339096 (antisense AAAGGAUUUAGGCCACUGCC; sense GGCAGUGGCCUAAAUCCUUU; siRNA; unmodified RNA)” as the substance, how does the IC50 (survivin protein) read?
A: 1.72 nM

Q: Which results are given for “Compound U17: canonical siRNA targeted to human survivin, two deoxythymidines at 3' end of each strand (Table 14) (antisense GGAGAUCAACAUUUUCAAA; sense UUUGAAAAUGUUGAUCUCC; RNA, 3' dTdT, backbone not given here)”?
A: activity in quantitative RT-PCR analysis (human survivin mRNA [1]; in words): potent activity; activity in Western blot analysis (survivin protein; in words): potent activity

Q: For “ISIS 353537_343868: dsRNA duplex: antisense 353537 (4'-thio), sense 343868 (unmodified) (antisense UUUGAAAAUGUUGAUCUCC; sense GGAGAUCAACAUUUUCAAA; 4'-thio antisense, chemistry not fully specified)”, which IC50 (human survivin mRNA [1]; [5]) is on record?
A: 0.18 nM

Q: What about the “Stability (t ½ in hours)” value [3] of the same substance?
A: 3 h

Q: What does the source list for “ISIS 355713_355714: blunt-ended siRNA duplex, alternating 2'-O-methyl/2'-fluoro in opposing register: antisense 355713, sense 355714 (antisense UUUGAAAAUGUUGAUCUCC; sense GGAGAUCAACAUUUUCAAA; chemistry not fully specified)”?
A: IC50 (human survivin mRNA [1]; [5]): 0.06 nM; Stability (t ½ in hours) [3]: >4 h; stability of construct in serum (mouse plasma) ([3]; in words): remains relatively unchanged and is stable in serum
